≈ marks a conversion by molar mass, not a printed value.
Key:
Format in all cases: functional
Pseudomonas aeruginosa [1] = assay: Antibacterial activity against multidrug-resistant/tobramycin-susceptible Pseudomonas aeruginosa isolate 92014
Pseudomonas aeruginosa [2] = assay: Antibacterial activity against pandrug-resistant Pseudomonas aeruginosa isolate 91433
Pseudomonas aeruginosa [3] = assay: Antibacterial activity against multidrug-resistant/tobramycin-susceptible Pseudomonas aeruginosa isolate 86141
Pseudomonas aeruginosa [4] = assay: Antibacterial activity against multidrug-resistant/tobramycin-susceptible Pseudomonas aeruginosa isolate 84745
Pseudomonas aeruginosa [5] = assay: Antibacterial activity against multidrug-resistant/tobramycin-susceptible Pseudomonas aeruginosa isolate 86053
Pseudomonas aeruginosa [6] = assay: Antibacterial activity against multidrug-resistant/tobramycin-susceptible Pseudomonas aeruginosa isolate 83182
Pseudomonas aeruginosa [7] = assay: Antibacterial activity against multidrug-resistant/tobramycin-susceptible Pseudomonas aeruginosa isolate 80621
Pseudomonas aeruginosa [8] = assay: Antibacterial activity against multidrug/extremely drug-resistant/colistin-susceptible Pseudomonas aeruginosa isolate 100036
Pseudomonas aeruginosa [9] = assay: Antibacterial activity against multidrug-resistant/tobramycin-susceptible Pseudomonas aeruginosa isolate 86067
Pseudomonas aeruginosa [10] = assay: Antibacterial activity against multidrug/extremely drug-resistant/colistin-susceptible Pseudomonas aeruginosa isolate 264-104354
Pseudomonas aeruginosa [11] = assay: Antibacterial activity against multidrug-resistant/tobramycin-susceptible Pseudomonas aeruginosa isolate 85322
Pseudomonas aeruginosa [12] = assay: Antibacterial activity against pandrug-resistant Pseudomonas aeruginosa isolate 101243
Pseudomonas aeruginosa [13] = assay: Antibacterial activity against multidrug-resistant/tobramycin-susceptible Pseudomonas aeruginosa isolate 108590
Pseudomonas aeruginosa [14] = assay: Antibacterial activity against multidrug-resistant/tobramycin-susceptible Pseudomonas aeruginosa isolate 86079
Pseudomonas aeruginosa [15] = assay: Antibacterial activity against multidrug/extremely drug-resistant/colistin-susceptible Pseudomonas aeruginosa isolate 101885
Pseudomonas aeruginosa [16] = assay: Antibacterial activity against multidrug-resistant/tobramycin-susceptible Pseudomonas aeruginosa isolate 86052
Pseudomonas aeruginosa [17] = assay: Antibacterial activity against multidrug/extremely drug-resistant/colistin-susceptible Pseudomonas aeruginosa isolate 262-101856
Pseudomonas aeruginosa [18] = assay: Antibacterial activity against multidrug/extremely drug-resistant/colistin-susceptible Pseudomonas aeruginosa isolate 259-96918
Pseudomonas aeruginosa [19] = assay: Antibacterial activity against multidrug-resistant/tobramycin-susceptible Pseudomonas aeruginosa isolate 79199
Pseudomonas aeruginosa [20] = assay: Antibacterial activity against multidrug/extremely drug-resistant/colistin-susceptible Pseudomonas aeruginosa isolate 260-97103
Escherichia coli [21] = assay: Antibacterial activity against amikacin-resistant Escherichia coli isolate CAN-ICU 63074 after 24 hrs by microtitre broth dilution method; conditions: isolate CAN-ICU 63074, 24 h
[22] = test system: Staphylococcus epidermidis; assay: Antibacterial activity against methicillin-resistant Staphylococcus epidermidis isolate CAN-ICU 61589 after 24 hrs by microtitre broth dilution method; conditions: isolate CAN-ICU 61589, 24 h
[23] = test system: Stenotrophomonas maltophilia; assay: Antibacterial activity against Stenotrophomonas maltophilia isolate CAN-ICU 62584 after 24 hrs by microtitre broth dilution method; conditions: isolate CAN-ICU 62584, 24 h
Escherichia coli [24] = assay: Antibacterial activity against Escherichia coli ATCC 25922 after 24 hrs by microtitre broth dilution method; conditions: ATCC 25922, 24 h
Enterococcus faecalis = assay: Antibacterial activity against Enterococcus faecalis ATCC 29212 after 24 hrs by microtitre broth dilution method; conditions: ATCC 29212, 24 h
Pseudomonas aeruginosa [25] = assay: Antibacterial activity against Pseudomonas aeruginosa PAO1
Enterococcus faecium = assay: Antibacterial activity against Enterococcus faecium ATCC 27270 after 24 hrs by microtitre broth dilution method; conditions: ATCC 27270, 24 h
Staphylococcus aureus [26] = assay: Antibacterial activity against Staphylococcus aureus ATCC 29213 after 24 hrs by microtitre broth dilution method; conditions: ATCC 29213, 24 h
Pseudomonas aeruginosa [27] = assay: Antibacterial activity against gentamicin/tobramycin-resistant Pseudomonas aeruginosa isolate CANWARD-2011 96846 after 24 hrs by microtitre broth dilution method; conditions: isolate CANWARD-2011 96846, 24 h
Pseudomonas aeruginosa [28] = assay: Antibacterial activity against Pseudomonas aeruginosa ATCC 27853 after 24 hrs by microtitre broth dilution method; conditions: ATCC 27853, 24 h
Streptococcus pneumoniae = assay: Antibacterial activity against Streptococcus pneumoniae ATCC 49619 after 24 hrs by microtitre broth dilution method; conditions: ATCC 49619, 24 h
Escherichia coli [29] = assay: Antibacterial activity against gentamicin/tobramycin/ciprofloxacin-resistant Escherichia coli isolate CANWARD-2011 97615 harboring AAC3-2A after 24 hrs by microtitre broth dilution method; conditions: isolate CANWARD-2011 97615, 24 h
[30] = test system: Staphylococcus epidermidis; assay: Antibacterial activity against methicillin-susceptible Staphylococcus epidermidis isolate CANWARD-2008 81388 after 24 hrs by microtitre broth dilution method; conditions: isolate CANWARD-2008 81388, 24 h
Klebsiella pneumoniae = assay: Antibacterial activity against Klebsiella pneumoniae ATCC 13883 after 24 hrs by microtitre broth dilution method; conditions: ATCC 13883, 24 h
Escherichia coli [31] = assay: Antibacterial activity against gentamicin-resistant Escherichia coli isolate CAN-ICU 61714 after 24 hrs by microtitre broth dilution method; conditions: isolate CAN-ICU 61714, 24 h
Staphylococcus aureus [32] = assay: Antibacterial activity against methicillin-resistant Staphylococcus aureus ATCC 33592 after 24 hrs by microtitre broth dilution method; conditions: ATCC 33592, 24 h
Acinetobacter baumannii = assay: Antibacterial activity against Acinetobacter baumannii isolate CAN-ICU 63169 after 24 hrs by microtitre broth dilution method; conditions: isolate CAN-ICU 63169, 24 h

Molecule | MIC (Pseudomonas aeruginosa [1]) [µg/mL] | MIC (Pseudomonas aeruginosa [2]) [µg/mL] | MIC (Pseudomonas aeruginosa [3]) [µg/mL] | MIC (Pseudomonas aeruginosa [4]) [µg/mL] | MIC (Pseudomonas aeruginosa [5]) [µg/mL] | MIC (Pseudomonas aeruginosa [6]) [µg/mL] | MIC (Pseudomonas aeruginosa [7]) [µg/mL] | MIC (Pseudomonas aeruginosa [8]) [µg/mL] | MIC (Pseudomonas aeruginosa [9]) [µg/mL] | MIC (Pseudomonas aeruginosa [10]) [µg/mL] | MIC (Pseudomonas aeruginosa [11]) [µg/mL] | MIC (Pseudomonas aeruginosa [12]) [µg/mL] | MIC (Pseudomonas aeruginosa [13]) [µg/mL] | MIC (Pseudomonas aeruginosa [14]) [µg/mL] | MIC (Pseudomonas aeruginosa [15]) [µg/mL] | MIC (Pseudomonas aeruginosa [16]) [µg/mL] | MIC (Pseudomonas aeruginosa [17]) [µg/mL] | MIC (Pseudomonas aeruginosa [18]) [µg/mL] | MIC (Pseudomonas aeruginosa [19]) [µg/mL] | MIC (Pseudomonas aeruginosa [20]) [µg/mL] | further results
C[C@@H](O)[C@H]1C(=O)N2C(C(=O)O)=C(S[C@@H]3CN[C@H](C(=O)N(C)C)C3)[C@H](C)[C@H]12 [MEROPENEM] | 8 (≈ 20.9 µM) | 8 (≈ 20.9 µM) | 16 (≈ 41.7 µM) | 16 (≈ 41.7 µM) | > 32 | 16 (≈ 41.7 µM) | 16 (≈ 41.7 µM) | 4 (≈ 10.4 µM) | > 32 | > 32 | 16 (≈ 41.7 µM) | 16 (≈ 41.7 µM) | 8 (≈ 20.9 µM) | 32 (≈ 83.4 µM) | 1 (≈ 2.61 µM) | 8 (≈ 20.9 µM) | 32 (≈ 83.4 µM) | > 32 | 16 (≈ 41.7 µM) | 16 (≈ 41.7 µM) | –
NCC[C@H](O)C(=O)N[C@@H]1C[C@H](N)[C@@H](O[C@H]2O[C@H](CN)[C@@H](O)[C@H](O)[C@H]2O)[C@H](O)[C@H]1O[C@H]1O[C@H](CO)[C@@H](O)[C@H](N)[C@H]1O [AMIKACIN] | – | – | – | – | – | – | – | – | – | – | – | – | – | – | – | – | – | – | – | – | MIC (Escherichia coli [21]): 32 µg/mL (≈ 54.6 µM)
CC(C)(O/N=C(\C(=O)N[C@@H]1C(=O)N2C(C(=O)[O-])=C(C[n+]3ccccc3)CS[C@H]12)c1csc(N)n1)C(=O)O [CEFTAZIDIME] | > 32 | – | > 32 | > 32 | > 32 | > 32 | > 32 | – | > 32 | – | > 32 | – | 32 (≈ 58.5 µM) | > 32 | – | > 32 | – | – | 32 (≈ 58.5 µM) | – | –
CO/N=C(\C(=O)N[C@@H]1C(=O)N2C(C(=O)[O-])=C(C[N+]3(C)CCCC3)CS[C@H]12)c1csc(N)n1 [CEFEPIME] | 16 (≈ 33.3 µM) | 16 (≈ 33.3 µM) | 16 (≈ 33.3 µM) | 16 (≈ 33.3 µM) | 64 (≈ 133 µM) | 16 (≈ 33.3 µM) | 8 (≈ 16.6 µM) | 4 (≈ 8.32 µM) | 64 (≈ 133 µM) | 32 (≈ 66.6 µM) | 16 (≈ 33.3 µM) | 64 (≈ 133 µM) | – | 32 (≈ 66.6 µM) | 8 (≈ 16.6 µM) | 16 (≈ 33.3 µM) | 32 (≈ 66.6 µM) | > 64 | 32 (≈ 66.6 µM) | 16 (≈ 33.3 µM) | –
Cc1nnc(SCC2=C(C(=O)O)N3C(=O)[C@@H](NC(=O)Cn4cnnn4)[C@H]3SC2)s1 [CEFAZOLIN] | – | – | – | – | – | – | – | – | – | – | – | – | – | – | – | – | – | – | – | – | MIC [22]: > 32 µg/mL
C[C@H]1c2cccc(O)c2C(=O)C2=C(O)[C@]3(O)C(=O)C(C(N)=O)=C(O)[C@@H](N(C)C)[C@@H]3[C@@H](O)[C@@H]21.O [DOXYCYCLINE] | – | 32 | – | – | – | – | – | > 32 | – | > 32 | – | 8 | – | – | > 32 | – | > 32 | > 32 | – | 32 | –
C[C@@H](O)[C@H]1C(=O)N2C(C(=O)O)=C(SCCNC=N)C[C@H]12 [IMIPENEM ANHYDROUS] | 8 (≈ 26.7 µM) | – | 16 (≈ 53.4 µM) | 16 (≈ 53.4 µM) | 16 (≈ 53.4 µM) | 16 (≈ 53.4 µM) | 32 (≈ 107 µM) | – | > 32 | – | 32 (≈ 107 µM) | – | 32 (≈ 107 µM) | 16 (≈ 53.4 µM) | – | 32 (≈ 107 µM) | – | – | 4 (≈ 13.4 µM) | – | –
O=C(O)c1cn(C2CC2)c2cc(N3CCNCC3)c(F)cc2c1=O [CIPROFLOXACIN] | – | 4 to 8 (≈ 12.1 to 24.1 µM) | – | – | > 16 | 4 (≈ 12.1 µM) | – | 64 (≈ 193 µM) | 4 (≈ 12.1 µM) | 16 to 32 (≈ 48.3 to 96.6 µM) | – | – | – | > 16 | 32 (≈ 96.6 µM) | > 16 | 16 to 32 (≈ 48.3 to 96.6 µM) | 256 (≈ 773 µM) | – | 16 to 64 (≈ 48.3 to 193 µM) | MIC [23]: 32 µg/mL (≈ 96.6 µM); MIC (Escherichia coli [24]): ≤ 0.25 µg/mL; MIC (Enterococcus faecalis): 1 µg/mL (≈ 3.02 µM); MIC (Pseudomonas aeruginosa [25]): < 0.2 µg/mL; MIC (Enterococcus faecium): 8 µg/mL (≈ 24.1 µM); MIC (Staphylococcus aureus [26]): ≤ 0.25 µg/mL; MIC (Pseudomonas aeruginosa [27]): 4 µg/mL (≈ 12.1 µM); MIC (Pseudomonas aeruginosa [28]): 1 µg/mL (≈ 3.02 µM); MIC (Streptococcus pneumoniae): 1 µg/mL (≈ 3.02 µM); MIC (Escherichia coli [21]): ≤ 0.25 µg/mL; MIC (Escherichia coli [29]): 256 µg/mL (≈ 773 µM); MIC [30]: ≤ 0.25 µg/mL; MIC (Klebsiella pneumoniae): ≤ 0.25 µg/mL; MIC [22]: 128 µg/mL (≈ 386 µM); MIC (Escherichia coli [31]): ≤ 0.25 µg/mL; MIC (Staphylococcus aureus [32]): ≤ 0.25 µg/mL; MIC (Acinetobacter baumannii): 2 µg/mL (≈ 6.04 µM)
GENTAMICIN | 4 | 32 | 8 | 8 | 4 | 4 | 16 | > 32 | > 32 | > 32 | 4 | > 32 | 16 | 8 | > 0.5 | 4 | > 32 | > 32 | 4 | > 32 | –
C[C@@H](O)[C@H]1C(=O)N2C(C(=O)O)=C(S[C@@H]3CN[C@H](CNS(N)(=O)=O)C3)[C@H](C)[C@H]12 [DORIPENEM] | – | 8 (≈ 19 µM) | – | – | – | – | – | 5 (≈ 11.9 µM) | – | 16 (≈ 38 µM) | – | 16 (≈ 38 µM) | – | – | 0.5 (≈ 1.19 µM) | – | 8 (≈ 19 µM) | > 32 | – | 32 (≈ 76.1 µM) | –

— ChEMBL document CHEMBL3856229, “Hybrid Antibiotic Overcomes Resistance in P. aeruginosa by Enhancing Outer Membrane Penetration and Reducing Efflux” (J Med Chem, 2016)
